In brackets after ≈: the same amount, converted by molar mass. Read-outs that look alike come from different tables or passages of the source.
Columns and labels:
CCK2 (human) [1] = target: T1, CCK2 (human) (Homo sapiens, UniProt P32239); settings: cited from earlier work
T1 sequence (P32239 1-447): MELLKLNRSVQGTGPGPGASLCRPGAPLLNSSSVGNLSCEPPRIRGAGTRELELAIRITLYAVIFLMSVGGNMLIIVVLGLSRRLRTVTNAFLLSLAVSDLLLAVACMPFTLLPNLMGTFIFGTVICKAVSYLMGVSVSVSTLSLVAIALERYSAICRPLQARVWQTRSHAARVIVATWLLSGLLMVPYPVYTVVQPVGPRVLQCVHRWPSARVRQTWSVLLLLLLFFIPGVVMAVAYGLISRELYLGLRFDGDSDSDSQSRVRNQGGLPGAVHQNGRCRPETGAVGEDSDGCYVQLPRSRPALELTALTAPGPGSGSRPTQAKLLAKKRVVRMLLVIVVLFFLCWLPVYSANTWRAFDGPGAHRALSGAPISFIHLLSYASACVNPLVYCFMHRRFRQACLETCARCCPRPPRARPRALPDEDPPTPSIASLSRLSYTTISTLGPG

[2] = system: gastrin-stimulated acid secretion; settings: oral, healthy men; cited from earlier work
panic attacks = settings: patients; cited from earlier work
[3] = cited from earlier work
[4] = in vivo; cited from earlier work
CCK1 (human) = target: T2, CCK1 (human) (Homo sapiens, UniProt P32238); experiment: CCK1 receptor functional assay (antagonist effect, cAMP, HTRF); format: cell-based; settings: stimulus CCK-8s 300 nM, 10 min 37° C., CHO cells
T2 construct: expressed in transfected cells; host or cells: CHO cells
T2 sequence (P32238 1-428): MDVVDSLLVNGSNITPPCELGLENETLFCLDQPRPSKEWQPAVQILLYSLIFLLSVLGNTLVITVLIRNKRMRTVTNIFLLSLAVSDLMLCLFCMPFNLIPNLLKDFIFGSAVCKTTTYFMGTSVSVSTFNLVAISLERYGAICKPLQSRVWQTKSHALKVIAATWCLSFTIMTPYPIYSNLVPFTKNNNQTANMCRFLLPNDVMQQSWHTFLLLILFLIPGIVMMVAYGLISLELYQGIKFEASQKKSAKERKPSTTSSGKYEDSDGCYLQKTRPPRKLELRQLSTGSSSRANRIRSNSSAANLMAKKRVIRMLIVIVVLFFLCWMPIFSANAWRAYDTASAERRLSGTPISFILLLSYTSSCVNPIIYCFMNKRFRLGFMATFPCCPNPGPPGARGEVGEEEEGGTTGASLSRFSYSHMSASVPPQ
Text: (§1) (TR2) and (TR3) were compared with YF476 and YM022 in CCK1 and CCK2 receptor functional assays with the following assay criteria.
(§2) The potency of the antagonists is expressed as IC50, the concentration of antagonist that causes a half-maximum inhibition of the control agonist response. The affinity of the antagonist for the receptor is expressed as KB, the concentration of antagonist, which would occupy 50% of the receptors at equilibrium.

panel of 80 receptors = experiment: Receptor binding screen, radiolabelled ligands, scintillation counting; settings: other than CCK2 and CCK1
Procedure: The potential of (TR2) and (TR3) to bind to other cellular and nuclear receptors was tested in a panel of 80 receptors. The assay used radiolabelled receptor ligands (agonist or antagonist, depending on the receptor), and the ability of the test compounds to inhibit ligand binding was measured by scintillation counting.

[5] = system: AGSGR cells (gastric adenocarcinoma cell line transfected with human gastrin/CCK2 receptor gene); experiment: Sulphorhodamine-B (SRB) proliferation assay, G17-treated cells; format: cell-based; settings: G17 10 nM
Procedure: The potency of (TR2) and (TR3) was tested in a sulphorhodamine-B (SRB) proliferation assay in a human gastric adenocarcinoma cell line stably transfected with the human gastrin/CCK2 receptor gene (AGSGR). SRB is a fluorescent dye that binds to proteins, so cells with a high rate of protein synthesis (proliferative cells) will show high levels of fluorescence in the SRB assay. […] (TR2) and (TR3) were compared with the positive controls YF476 and YM022.

[6] = system: pentagastrin-stimulated gastric acid secretion; experiment: Pentagastrin-stimulated gastric acid secretion in conscious rats with a chronic gastric fistula; format: in vivo; settings: Rattus norvegicus, sc, read-out: ED50, inhibition of pentagastrin-stimulated gastric acid secretion
Procedure: The effect of subcutaneous injections of YF476, (TR2) and (TR3) on pentagastrin-stimulated gastric acid secretion was tested in conscious rats with a chronic gastric fistula.

CCK2 (human) [7] = target: T1, CCK2 (human); experiment: CCK2 receptor functional assay (antagonist effect, cAMP, HTRF); format: cell-based; set-up: expressed in transfected cells; host or cells: CHO cells
Text: as §1, §2

rat brain CCK2 receptors = target: T3, rat brain CCK2 receptors (Rattus norvegicus, UniProt P30553); settings: cited from earlier work
T3 construct: host or cells: rat brain
T3 sequence (P30553 1-452): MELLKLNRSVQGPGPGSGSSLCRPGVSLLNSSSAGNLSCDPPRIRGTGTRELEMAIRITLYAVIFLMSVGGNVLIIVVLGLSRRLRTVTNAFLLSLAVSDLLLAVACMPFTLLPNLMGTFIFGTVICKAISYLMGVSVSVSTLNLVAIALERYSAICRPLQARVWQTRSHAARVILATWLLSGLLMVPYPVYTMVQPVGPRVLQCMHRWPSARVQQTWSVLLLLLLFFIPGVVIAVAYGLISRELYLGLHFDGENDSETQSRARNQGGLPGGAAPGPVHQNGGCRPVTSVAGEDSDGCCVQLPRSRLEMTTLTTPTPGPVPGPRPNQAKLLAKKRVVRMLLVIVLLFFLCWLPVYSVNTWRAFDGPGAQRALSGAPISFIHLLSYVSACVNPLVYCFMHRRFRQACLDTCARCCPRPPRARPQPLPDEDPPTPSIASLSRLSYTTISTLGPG

[8] = Pharmacokinetics in healthy subjects, single oral dose, API in capsule; settings: human, in vivo, po, 100 mg
Procedure: In an initial study, healthy volunteers took a single oral dose of 100 mg (TR2) as an active pharmaceutical ingredient (API) in a capsule. Plasma concentrations were measured.
In further clinical studies, healthy volunteers (n=8) took single oral doses of 5, 15, 50 and 100 mg (TR2) as an active pharmaceutical ingredient (API) in a capsule. (Capsule formulation TR2 powder (API) in a hard gelatin capsule, no excipients, no processing). Plasma concentrations were measured.
Healthy volunteers (n=8) took single oral doses of 5, 15, 25 and 50 mg (TR2-A) as API in a capsule (TR2-A (crystalline) in hard gelatin capsule with no excipient, no processing of the API). Plasma concentrations of (TR2) and (TR2-A) were measured. The area under the curve of plasma concentrations of (TR2) after a single oral dose of 50 mg of (TR2-A) API (AUC0-24 h=212.5) was about the same as that observed for a similar formulation of a single oral dose of (TR2) 100 mg (AUC0-24 h=241.5).

[9] = Aqueous solubility study in Britton-Robinson's buffer (HPLC-UV); format: physicochemical; settings: aqueous buffer, thermodynamic from solid, ambient temperature overnight
Procedure: The test compound (2.5 mg of solid; n=1) was weighed in a clear glass vial and Britton-Robinson's buffer (0.5 mL) was added (pH 2.01, pH 3.06, pH 4.06, pH 5.08, pH 5.99, pH 6.98, and pH 8.16). The solution was agitated at ambient temperature overnight using a vial roller system, and then filtered (0.45 μm pore size; without pre-saturation). Two aliquots (50 μL) were sampled from the filtrate and diluted with one volume of 0.1 N hydrochloric acid and methanol (1:1 v/v) before analysis by HPLC-UV. A standard was prepared in DMSO at 10 mg/mL (n=1) which was then diluted 10-fold in 0.1 N hydrochloric acid and methanol (1:1 v/v) to give a 1 mg/mL solution. The concentration of test compound in the filtrate was quantified relative to the concentration standard.
Analysis was done using a gradient HPLC-UV system with a total cycle time of 6 min. The UV detection between 220 nm and 300 nm was done using a photodiode array detector.
The values given in the table above are for crystalline YF476 and (TR2-A) and amorphous (TR1).

[10] = YF476 serum concentrations and bioavailability in healthy subjects (background); format: in vivo, human
Text: Bioavailability can be improved by preparing and administering a formulation of amorphous YF476, but this requires stabilisation such as in the form of a solid dispersion on hydroxypropyl methyl cellulose by spray-drying. Even with this processing, bioavailability of YF476 was still low. […] However, it would be beneficial to provide a CCK2/gastrin receptor antagonist where administration with food is not required.

[11] = stimulus CCK-8s 10 nM, 10 min 37° C., CHO cells, read-out: CCK2 IC50
[12] = stimulus CCK-8s 10 nM, 10 min 37° C., CHO cells, read-out: CCK2 KB

| SMILES | Aqueous solubility [3] | IC50 (CCK1 (human)) | Binding to other cellular and nuclear receptors (inhibition of ligand binding) (panel of 80 receptors) | ED50 [6] | Selectivity IC50 (CCK1)/IC50 (CCK2) (CCK2 (human) [7]) | Selectivity KB (CCK1)/KB (CCK2) (CCK2 (human) [7]) | IC50 (CCK2 (human) [7]; [11]) | Kb (CCK2 (human) [7]; [12]) | Inhibition of the anti-proliferative effects of G17 ([5]; compound 100 nM) | AUC [8] | AUC(0-t) [8] | further results |
| --- | --- | --- | --- | --- | --- | --- | --- | --- | --- | --- | --- | --- |
| Cc1cccc(NC(=O)N[C@@H]2N=C(c3ccccc3)c3ccccc3N(C)C2=O)c1 [L-365,260] | low |  |  |  |  |  |  |  |  |  |  | Affinity at CCK2 receptors (CCK2 (human) [1]): nanomolar; Selectivity versus the CCK1 receptor (CCK2 (human) [1]): 140 fold; Inhibition of gastrin-stimulated acid secretion [2]: only modest and short lasting inhibition; Limiting panic attacks (panic attacks): ineffective; Oral bioavailability [4]: poor |
| CNc1cccc(NC(=O)N[C@H]2N=C(c3ccccn3)c3ccccc3N(CC(=O)C(C)(C)CO)C2=O)c1 [TR3] |  | 8500 nM | No significant receptor binding | 0.3 µmol/kg | 86 | 108 | 99 nM | 12 nM |  |  |  | Inhibition of the anti-proliferative effects of G17 ([5]; compound 500 nM): had the same effect |
| Cc1cccc(NC(=O)N[C@@H]2N=C(c3ccccc3)c3ccccc3N(CC(=O)c3ccccc3C)C2=O)c1 [YM022, reference compound] | low |  |  |  |  |  |  |  | completely inhibited |  |  | Affinity at rat brain CCK2 receptors (rat brain CCK2 receptors): subnanomolar; Affinity at rat brain CCK2 receptors relative to rat pancreatic CCK1 receptors (rat brain CCK2 receptors): more than two orders of magnitude higher; IC50 (CCK2 (human) [7]): 0.55 nM; Kb (CCK2 (human) [7]): 0.68 nM |
| CNc1cccc(NC(=O)N[C@@H]2N=C(c3ccccn3)c3ccccc3N(CC(=O)C(C)(C)CO)C2=O)c1 [TR2, (R)-1-[1-(4-Hydroxy-3,3-dimethyl-2-oxo-butyl)-2-oxo-5-pyridin-2-yl-2,3-dihydro-1H-benzo[e][1,4]diazepin-3-yl]-3-(3-methylamino-phenyl)-urea] |  | 1000 nM | No significant receptor binding | 0.03 µmol/kg | 400 | 484 | 2.5 nM | 0.31 nM | completely inhibited | 0.439 µg·h/mL | 0.241 µg·h/mL | Mean AUC0-24 h of plasma concentrations [8]: 0.2415 µg·h/mL; Affinity for the CCK2 receptor, fold lower than that of YF476 (CCK2 (human) [7]; relative to YF476): about 5 fold; Selectivity for CCK2 over CCK1 receptor, higher than the selectivity of YF476 (CCK2 (human) [7]; relative to YF476): 30%; Potency in CCK2 assay, fold less potent than YF476 and YM022 (CCK2 (human) [7]; relative to YF476 and YM022): about 5 fold; Affinity for the CCK2 receptor relative to YM022 (CCK2 (human) [7]; relative to YM022): twice that of YM022 |
| CNc1cccc(NC(=O)N[C@@H]2N=C(c3ccccn3)c3ccccc3N(CC(=O)C(C)(C)C)C2=O)c1 [YF476, reference compound] |  | 160 nM |  |  | 308 | 375 | 0.52 nM | 0.064 nM | completely inhibited | 0.199 µg·h/mL | 0.0813 µg·h/mL | solubility ([9]; pH 2.01, Britton-Robinson's buffer): 2650 µg/mL (≈ 5320 µM); solubility ([9]; pH 3.06, Britton-Robinson's buffer): 99.7 µg/mL (≈ 200 µM); solubility ([9]; pH 4.06, Britton-Robinson's buffer): 5.9 µg/mL (≈ 11.8 µM); solubility ([9]; pH 5.08, Britton-Robinson's buffer): 1.4 µg/mL (≈ 2.81 µM); solubility ([9]; pH 5.99, Britton-Robinson's buffer): 1.3 µg/mL (≈ 2.61 µM); solubility ([9]; pH 6.98, Britton-Robinson's buffer): 1.4 µg/mL (≈ 2.81 µM); solubility ([9]; pH 8.16, Britton-Robinson's buffer): 1.5 µg/mL (≈ 3.01 µM); ED50 ([6]; subcutaneous injection, conscious rats): 0.012 µmol/kg; Increase of bioavailability by food [10]: 1.6 fold; Serum concentrations ([10]; crystalline form): extremely low and very variable; More selective for CCK2 receptors than for CCK1 receptors (compared with YM022) (CCK2 (human) [1]; Semple et al. 1997): 5 fold |

Reference: patent US10906884B2, “Benzodiazepine derivatives as CCK2/gastrin receptor antagonists” (Trio Medicines Ltd, priority 2014, dated 2021)
